Results as given in patent publication US9073892B2, “Indazolyl triazol derivatives” (Merck Serono S.A., priority 2010, dated 2015).

system: T1, IRAK1/4 human; experiment: IRAK1/4 phosphorylation IC50 (enzymatic assay, table 2); type: biochemical; conditions: human IRAK1/4 phosphorylation
T1 construct: fused on or other part: His tag and TEV cleavage site at the N-terminus
How it was run: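 The IC50 values describe inhibition of His-TEV-tagged human IRAK-1 or IRAK-4. Each enzyme was incubated with ATP and compounds in DMSO at 20 µM to 1 nM for 2 or 3 hours, with STK1-biotin peptide included for IRAK-4.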

| SMILES | IC50 |
| --- | --- |
| O=C(c1ccc(-n2cc(-c3n[nH]c4cc(Br)ccc34)nn2)cc1)N1CCOCC1 [Example 208] | 0.1 to 1 µM |
| Cn1cc(-c2ccc3c(-c4cn(-c5ccc(C(=O)N6CCOCC6)cc5)nn4)n[nH]c3c2)cn1 [Example 209] | 1 to 5 µM |
| CN1CCC(c2ccc(-n3cc(-c4n[nH]c5ccccc45)nn3)cc2)CC1 [Example 211] | 0.1 to 1 µM |
| COC/C=C/c1ccc2c(-c3cn(-c4ccc(C(=O)N5CCOCC5)cc4)nn3)n[nH]c2c1 [Example 212] | 0.1 to 1 µM |
| COCC#Cc1ccc2c(-c3cn(-c4ccc(C(=O)N5CCOCC5)cc4)nn3)n[nH]c2c1 [Example 213] | 1 to 5 µM |
| O=C(c1ccc(-n2cc(-c3n[nH]c4cc(-c5ccncc5)ccc34)nn2)cc1)N1CCOCC1 [Example 214] | 0.1 to 1 µM |
| O=C(c1ccc(-n2cc(-c3n[nH]c4cc(C#CCCO)ccc34)nn2)cc1)N1CCOCC1 [Example 215] | 1 to 5 µM |
| O=C(c1ccc(-n2cc(-c3n[nH]c4cc(CCCCO)ccc34)nn2)cc1)N1CCOCC1 [Example 216] | 0.1 to 1 µM |
| O=C(c1ccc(-n2cc(-c3n[nH]c4cc(C5=CCOCC5)ccc34)nn2)cc1)N1CCOCC1 [Example 217] | 0.1 to 1 µM |
| CCC(O)CCc1ccc2c(-c3cn(-c4ccc(C(=O)N5CCOCC5)cc4)nn3)n[nH]c2c1 (stereo not drawn) [Example 218] | 1 to 5 µM |
| NCC#Cc1ccc2c(-c3cn(-c4ccc(C(=O)N5CCOCC5)cc4)nn3)n[nH]c2c1 [Example 219] | 1 to 5 µM |
| COCCCc1ccc2c(-c3cn(-c4ccc(C(=O)N5CCOCC5)cc4)nn3)n[nH]c2c1 [Example 220] | 0.1 to 1 µM |
| C#Cc1ccc2c(-c3cn(-c4ccc(C(=O)N5CCOCC5)cc4)nn3)n[nH]c2c1 [Example 221] | 0.1 to 1 µM |
| O=C(c1ccc(-n2cc(-c3n[nH]c4ccc(NC5CCCOC5)cc34)nn2)cc1)N1CCOCC1 (stereo not drawn) [Example 222] | 0.1 to 1 µM |
| CN1CCC(Nc2ccc3[nH]nc(-c4cn(-c5ccc(C(=O)N6CCOCC6)cc5)nn4)c3c2)CC1 [Example 223] | < 0.1 µM |
| CN1C2CCC1CC(n1cc(-n3cc(-c4n[nH]c5ccc(F)cc45)nn3)cn1)C2 (stereo not drawn) [Example 226] | 0.1 to 1 µM |
| CN1C2CCC1CC(n1cc(-n3cc(-c4n[nH]c5ccc(Cl)cc45)nn3)cn1)C2 (stereo not drawn) [Example 227] | 0.1 to 1 µM |
| O=C(NC1CCOCC1)c1ccc2[nH]nc(-c3cn(-c4ccc(CN5CCOCC5)cc4)nn3)c2c1 [Example 228] | 0.1 to 1 µM |
| CN1C2CCC1CC(n1cc(-n3cc(-c4n[nH]c5cc(F)ccc45)nn3)cn1)C2 (stereo not drawn) [Example 229] | < 0.1 µM |
| O=C(NCc1cccc(O)c1)c1ccc2[nH]nc(-c3cn(-c4ccc(CN5CCOCC5)cc4)nn3)c2c1 [Example 230] | < 0.1 µM |
| O=C(NC1CCC(O)CC1)c1ccc2[nH]nc(-c3cn(-c4ccc(CN5CCOCC5)cc4)nn3)c2c1 (stereo not drawn) [Example 231] | 0.1 to 1 µM |
| CC(C)c1ccc(-n2cc(-c3n[nH]c4ccccc34)nn2)cc1 [Example 232] | 1 to 5 µM |
| NC(=O)COc1ccc2c(-c3cn(-c4ccc(C(=O)N5CCOCC5)cc4)nn3)n[nH]c2c1 [Example 233] | 0.1 to 1 µM |
| COCCOc1ccc2c(-c3cn(-c4ccc(C(=O)N5CCOCC5)cc4)nn3)n[nH]c2c1 [Example 234] | 1 to 5 µM |
| O=C(c1ccc(-n2cc(-c3n[nH]c4cc(O)ccc34)nn2)cc1)N1CCOCC1 [Example 235] | 0.1 to 1 µM |

| SMILES | IC50 |
| --- | --- |
| O=C(c1ccc2[nH]nc(-c3cn(-c4ccc(CN5CCOCC5)cc4)nn3)c2c1)N1CCC(c2ccncc2)CC1 [Example 236] | 0.1 to 1 µM |
| CN(C)C1CCN(C(=O)c2ccc3[nH]nc(-c4cn(-c5ccc(CN6CCOCC6)cc5)nn4)c3c2)CC1 [Example 237] | 0.1 to 1 µM |
| c1ccc2c(-c3cn(-c4ccc(C5CCN(CC6CCCO6)CC5)cc4)nn3)n[nH]c2c1 (stereo not drawn) [Example 239] | 0.1 to 1 µM |
| O=C(c1ccc(-n2cc(-c3n[nH]c4cc(/C=C/CO)ccc34)nn2)cc1)N1CCOCC1 [Example 240] | < 0.1 µM |
| CN(C)S(=O)(=O)c1ccc(-n2cc(-c3n[nH]c4ccccc34)nn2)cc1 [Example 241] | 0.1 to 1 µM |
| O=C(c1ccc(-n2cc(-c3n[nH]c4ccc(N5CCCC(F)(F)C5)cc34)nn2)cc1)N1CCOCC1 [Example 242] | 0.1 to 1 µM |
| O=S(=O)(c1ccc(-n2cc(-c3n[nH]c4ccccc34)nn2)cc1)N1CCOCC1 [Example 243] | 0.1 to 1 µM |
| O=C(c1ccc(-n2cc(-c3n[nH]c4cc(NCCO)ccc34)nn2)cc1)N1CCOCC1 [Example 244] | 0.1 to 1 µM |
| CC(CO)Nc1ccc2c(-c3cn(-c4ccc(C(=O)N5CCOCC5)cc4)nn3)n[nH]c2c1 (stereo not drawn) [Example 245] | 0.1 to 1 µM |
| c1ccc2c(-c3cn(-c4ccc(N5CCNCC5)cc4)nn3)n[nH]c2c1 [Example 246] | 0.1 to 1 µM |
| c1ccc2c(-c3cn(-c4ccc(CN5CCCCC5)cc4)nn3)n[nH]c2c1 [Example 247] | 0.1 to 1 µM |
| O=C(c1ccc(-n2cc(-c3n[nH]c4ccc(NCC5CCOCC5)cc34)nn2)cc1)N1CCOCC1 [Example 248] | 0.1 to 1 µM |
| c1ccc2c(-c3cn(-c4ccc(C5CC6CCC(C5)N6C5COC5)cc4)nn3)n[nH]c2c1 (stereo not drawn) [Example 249] | 0.1 to 1 µM |
| O=C(c1ccc(-n2cc(-c3n[nH]c4ccc(N5CCN6CCCC6C5)cc34)nn2)cc1)N1CCOCC1 (stereo not drawn) [Example 250] | 0.1 to 1 µM |
| c1ccc2c(-c3cn(-c4ccc(C5CCCNC5)cc4)nn3)n[nH]c2c1 (stereo not drawn) [Example 252] | < 0.1 µM |
| CN1[C@@H]2CC[C@H]1C[C@@H](c1ccc(-n3cc(-c4n[nH]c5cc(F)ccc45)nn3)cc1)C2 [Example 253] | < 0.1 µM |
| O=C(c1ccc(-n2cc(-c3n[nH]c4ccc(N5CCCC(O)C5)cc34)nn2)cc1)N1CCOCC1 (stereo not drawn) [Example 254] | 0.1 to 1 µM |
| c1ccc2c(-c3cn(-c4ccc([C@@H]5C[C@H]6CC[C@@H](C5)N6)cc4)nn3)n[nH]c2c1 [Example 255] | < 0.1 µM |
| c1ccc2c(-c3cn(-c4ccc([C@H]5C[C@H]6CC[C@@H](C5)N6)cc4)nn3)n[nH]c2c1 [Example 256] | < 0.1 µM |
| O=C(c1ccc(-n2cc(-c3n[nH]c4ccc(NC5CCCNC5)cc34)nn2)cc1)N1CCOCC1 (stereo not drawn) [Example 257] | < 0.1 µM |
| Nc1ccc(-c2ccc(-n3cc(-c4n[nH]c5ccccc45)nn3)cc2)cn1 [Example 258] | 0.1 to 1 µM |
| O=S1(=O)CCN(Cc2ccc(-n3cc(-c4n[nH]c5ccccc45)nn3)cc2)CC1 [Example 259] | 0.1 to 1 µM |
| Cc1cc(-c2ccc(-n3cc(-c4n[nH]c5ccccc45)nn3)cc2)ccn1 [Example 260] | 0.1 to 1 µM |
| Cn1cc(-c2ccc(-n3cc(-c4n[nH]c5ccccc45)nn3)cc2)cn1 [Example 261] | 0.1 to 1 µM |
| c1ccc2c(-c3cn(-c4ccc(-c5cnn(CCN6CCOCC6)c5)cc4)nn3)n[nH]c2c1 [Example 262] | 0.1 to 1 µM |

| SMILES | IC50 |
| --- | --- |
| FC(F)(F)c1cc(-n2cc(-c3n[nH]c4ccccc34)nn2)ccc1C1CCNCC1 [Example 263] | 0.1 to 1 µM |
| O=C(c1ccc(-n2cc(-c3n[nH]c4ccc(N5CCOC(CCO)C5)cc34)nn2)cc1)N1CCOCC1 (stereo not drawn) [Example 264] | 0.1 to 1 µM |
| Cc1ccc2c(-c3cn(-c4ccc(C5CCNCC5)cc4)nn3)n[nH]c2c1 [Example 265] | < 0.1 µM |
| Fc1ccc2c(-c3cn(-c4ccc(C5CCNCC5)cc4)nn3)n[nH]c2c1 [Example 266] | < 0.1 µM |
| CN1CCC(c2ccc(-n3cc(-c4n[nH]c5ccccc45)nn3)cc2C(F)(F)F)CC1 [Example 267] | 0.1 to 1 µM |
| COc1cc(-n2cc(-c3n[nH]c4ccccc34)nn2)ccc1C1CCNCC1 [Example 268] | < 0.1 µM |
| c1ccc2c(-c3cn(-c4ccc(C5CCCNCC5)cc4)nn3)n[nH]c2c1 (stereo not drawn) [Example 269] | < 0.1 µM |
| Cc1ccc2c(-c3cn(-c4ccc(C5CCN(CCC(F)(F)F)CC5)cc4)nn3)n[nH]c2c1 [Example 270] | 1 to 5 µM |
| OC(CN1CCC(c2ccc(-n3cc(-c4n[nH]c5cc(F)ccc45)nn3)cc2)CC1)C(F)(F)F (stereo not drawn) [Example 271] | 0.1 to 1 µM |
| CN1[C@@H]2CCC[C@H]1C[C@H](c1ccc(-n3cc(-c4n[nH]c5cc(F)ccc45)nn3)cc1)C2 [Example 272] | < 0.1 µM |
| CN1[C@@H]2CCC[C@H]1C[C@H](c1ccc(-n3cc(-c4n[nH]c5ccccc45)nn3)cc1)C2 [Example 273] | < 0.1 µM |
| Cc1ccc2c(-c3cn(-c4ccc([C@@H]5C[C@H]6CCC[C@@H](C5)N6C)cc4)nn3)n[nH]c2c1 [Example 274] | < 0.1 µM |
| CC1(C)CNCCC1c1ccc(-n2cc(-c3n[nH]c4cc(F)ccc34)nn2)cc1 (stereo not drawn) [Example 275] | < 0.1 µM |
| O=C1C[C@@H](OCc2ccc3[nH]nc(-c4cn(-c5ccc(C(=O)N6CCOCC6)cc5)nn4)c3c2)CO1 [Example 276] | 0.1 to 1 µM |
| CC1(C)CNCCC1c1ccc(-n2cc(-c3n[nH]c4ccccc34)nn2)cc1 (stereo not drawn) [Example 277] | < 0.1 µM |
| CN1C2CCC1CC(n1cc(-n3cc(-c4n[nH]c5ccc(-c6cnn(C)c6)cc45)nn3)cn1)C2 (stereo not drawn) [Example 278] | < 0.1 µM |
| Cc1ccc2c(-c3cn(-c4ccc(CN5CCOC(C)(C)C5)cc4)nn3)n[nH]c2c1 [Example 279] | 0.1 to 1 µM |
| OC(CN1[C@@H]2CC[C@H]1C[C@@H](c1ccc(-n3cc(-c4n[nH]c5ccccc45)nn3)cc1)C2)C(F)(F)F (stereo partly drawn) [Example 280] | 0.1 to 1 µM |
| OC(CN1[C@@H]2CC[C@H]1C[C@H](c1ccc(-n3cc(-c4n[nH]c5ccccc45)nn3)cc1)C2)C(F)(F)F (stereo partly drawn) [Example 281] | 0.1 to 1 µM |
| Fc1ccc2c(-c3cn(-c4ccc(CN5CC6CCC(C5)O6)cc4)nn3)n[nH]c2c1 [Example 282] | 1 to 5 µM |
| CC1(C)CN(Cc2ccc(-n3cc(-c4n[nH]c5cc(F)ccc45)nn3)cc2)CCO1 [Example 283] | 1 to 5 µM |
| c1ccc2c(-c3cn(-c4ccc(CN5CC6CCC(C5)O6)cc4)nn3)n[nH]c2c1 [Example 284] | 1 to 5 µM |
| Fc1ccc2c(-c3cn(-c4ccc(CN5CCCCC56COC6)cc4)nn3)n[nH]c2c1 [Example 285] | 0.1 to 1 µM |
| Cc1ccc2c(-c3cn(-c4ccc(CN5CCCCC56COC6)cc4)nn3)n[nH]c2c1 [Example 287] | 0.1 to 1 µM |
| Cc1nn(C)cc1-c1ccc(-n2cc(-c3n[nH]c4ccccc34)nn2)cc1 [Example 289] | 0.1 to 1 µM |
